Where two headings read alike, the source gives them in different places. Where no end group is shown, it is not given here.
How the values were obtained:
[1] = tested on: Escherichia coli (E. coli) ATCC 25922; format: cell-based; conditions: MHB, 5 × 10^5 CFU/mL, 37°C, 18 h, triplicate
Procedure: (§1) The antibacterial activity of the vCPPs was tested using a standard broth microdilution procedure ([Wikler et al., 2006]; [Wiegand et al., 2008]) to evaluate the bacterial growth inhibition and determine the minimal inhibitory concentration (MIC). The assay was performed using the following strains: Gram-positive Staphylococcus aureus (S. aureus) ATCC 25923 and methicillin-resistant Staphylococcus aureus (MRSA) ATCC 33591, and Gram-negative Escherichia coli (E. coli) ATCC 25922 and Pseudomonas aeruginosa (P. aeruginosa) ATCC 27853, obtained from American Type Culture Collection (ATCC) (Manassas, VA, USA). Bacterial suspensions were prepared by direct suspension of morphologically similar colonies on Mueller Hinton Broth (MHB) from BD (Franklin Lakes, NJ, USA) to a final concentration of 1 × 10^6 CFU/mL, and added to a sterile 96-well microtiter polypropylene plate from Corning (Corning, NY, USA) containing two-fold dilutions of each peptide. Final bacterial concentration was 5 × 10^5 CFU/mL whereas peptide concentrations ranged between 100 and 0.78 μM. The 96-well plate was incubated at 37°C for 18 h. The MIC was defined as the lowest peptide concentration required to inhibited visible bacterial growth. The assay was performed in triplicate.

[2] = tested on: methicillin-resistant Staphylococcus aureus (MRSA) ATCC 33591; format: cell-based; conditions: MHB, 5 × 10^5 CFU/mL, 37°C, 18 h, triplicate
Procedure: as §1

[3] = tested on: Pseudomonas aeruginosa (P. aeruginosa) ATCC 27853; format: cell-based; conditions: MHB, 5 × 10^5 CFU/mL, 37°C, 18 h, triplicate
Procedure: as §1

P. aeruginosa [4] = assay: SYTOX Green uptake assay (membrane permeabilization, flow cytometry); format: cell-based, Pseudomonas aeruginosa; conditions: P. aeruginosa 5 × 10^5 CFU/mL in 10 mM HEPES pH 7.4, 150 mM NaCl, 1 h, 37°C, twofold dilutions starting at MBC
Procedure: SYTOX® Green (Invitrogen, Carlsbad, CA, USA) is a high-affinity nucleic acid stain that only penetrates cells with compromised plasma membranes and emits fluorescence when bound to DNA ([Roth et al., 1997]). A SYTOX Green uptake assay ([Torcato et al., 2013]; [Sani et al., 2015]) was performed using P. aeruginosa to study the effect of viral protein-derived peptides on those bacterial membranes. Bacterial suspensions at 1 × 10^8 CFU/mL in MHB were centrifuged for 10 min at 4000 × g and the pellet resuspended in 10 mM HEPES buffer, pH 7.4, containing 150 mM NaCl, to a final concentration of 5 × 10^5 CFU/mL. The bacterial suspensions were incubated for 1 h at 37°C and 200 rpm, with twofold dilutions of each bactericidal viral protein-derived peptide in a range of concentrations starting at their corresponding MBC. Peptide-treated bacterial cells were incubated with 0.1 μM of SYTOX Green for 10 min, on ice and protected from light. The fluorescence emission intensity signal was measured by flow cytometry (excitation with 488 nm laser and detection at 530 nm with 30 nm bandpass) and a total of 50 000 events were recorded. […] The percentage of permeabilized cells was determined considering that untreated bacterial cells (negative control) are 0% permeabilized and bacterial cells treated with isopropyl alcohol (positive control) are 100% permeabilized. […]

[5] = tested on: Staphylococcus aureus (S. aureus) ATCC 25923; conditions: previous screen, ref Freire et al., 2015a; cited from earlier work
P. aeruginosa [6] = assay: Time-kill assay; format: cell-based, Pseudomonas aeruginosa; conditions: peptide at its MBC, after 180 min, MHB, 37°C, relative to control without peptide, three independent experiments
Procedure: (§2) For viral protein-derived peptides displaying bactericidal activity, bacterial killing kinetics was determined by a conventional method based on colony counts obtained after different times of exposure of the bacterial cells to the peptides ([Barry et al., 1999]). The assay was performed using S. aureus and P. aeruginosa as representative strains of Gram-positive and Gram-negative bacteria, respectively. Bacterial suspensions prepared in MHB at 5 × 10^5 CFU/mL were treated with each peptide at final concentrations corresponding to their MBC, and incubated at 37°C and 200 rpm. A control of bacterial suspensions without peptide was performed under the same conditions. Aliquots of untreated and peptide-treated bacterial suspensions were withdrawn at 0, 15, 30, 60, 120, and 180 min, serially diluted in MHB, and plated on TSA plates. Bacterial colonies were counted after 24 h of incubation at 37°C. Viable bacteria (in CFU/mL) are reported as percentage of the control. The assay was performed in triplicate.

S. aureus [7] = format: cell-based, Staphylococcus aureus; conditions: for bactericidal or bacteriostatic: bactericidal when MBC is equal or lower than four-fold MIC; for MBC: lowest concentration causing ≥99.9% cell death of the inoculum, TSA plates, 37°C, 24 h, triplicate
Procedure: (§3) After the MIC assay, aliquots were removed from the wells with no visible bacterial growth, serially diluted in MHB, plated on nutrient-rich trypcase soy agar (TSA) plates from bioMérieux (Marcy l’Etoile, France), and incubated at 37°C for 24 h. […] The assay was performed in triplicate.

P. aeruginosa [8] = format: cell-based; conditions: for bactericidal or bacteriostatic: bactericidal when MBC is equal or lower than four-fold MIC; for MBC: lowest concentration causing ≥99.9% cell death of the inoculum, TSA plates, 37°C, 24 h, triplicate
Procedure: as §3

P. aeruginosa cells = assay: Atomic force microscopy (AFM) imaging; format: cell-based, Pseudomonas aeruginosa; conditions: 1 h, 37°C
Procedure: Atomic force microscopy (AFM) imaging was used to study the effect of the bactericidal viral protein-derived peptides on P. aeruginosa cells. Bacterial suspensions at 1 × 10^8 CFU/mL in MHB were centrifuged for 10 min at 4000 × g, and the pellet resuspended in HEPES buffer to a final concentration of 1 × 10^7 CFU/mL. The bacterial suspensions were treated with each peptide at concentrations corresponding to their MBC, as well as the concentrations above and below their MBC, and incubated for 1 h at 37°C and 200 rpm. As control, untreated bacterial suspension was also incubated using the same conditions. A 200 μL droplet of each test sample was applied on a poly-L-lysine-coated glass slide and allowed to deposit for 20 min at room temperature. Each sample was then rinsed 10 times with sterile Milli-Q water and allowed to dry for 30 min at room temperature. AFM images were acquired using a JPK NanoWizard II (Berlin, Germany) mounted on a Zeiss Axiovert 200 inverted microscope (Göttingen, Germany). Measurements were carried out in air and in intermittent contact mode using uncoated silicon ACL cantilevers from APPNano (Mountain View, CA, USA). ACL cantilevers had typical resonance frequencies of 190 kHz and a spring constant of 45 N/m. Bacteria were first visualized through the optical microscope before being selected for imaging. On average, 14 untreated bacteria and 10 individual bacterial cells were imaged for each peptide concentration, with a total area of 4 μm × 4 μm from three independent bacterial preparation slides. Height images were recorded and treated with JPK SPM data processing 5.1.8.

[9] = tested on: Pseudomonas aeruginosa (P. aeruginosa) ATCC 27853; conditions: previous screen, ref Freire et al., 2015a; cited from earlier work
S. aureus [10] = assay: Time-kill assay; format: cell-based, Staphylococcus aureus; conditions: peptide at its MBC, after 30 min, MHB, 37°C, relative to control without peptide, three independent experiments
Procedure: as §2

[11] = tested on: Staphylococcus aureus (S. aureus) ATCC 25923; format: cell-based; conditions: MHB, 5 × 10^5 CFU/mL, 37°C, 18 h, triplicate
Procedure: as §1

E. coli = format: cell-based, Escherichia coli; conditions: for bactericidal or bacteriostatic: bactericidal when MBC is equal or lower than four-fold MIC; for MBC: lowest concentration causing ≥99.9% cell death of the inoculum, TSA plates, 37°C, 24 h, triplicate
Procedure: as §3

MRSA = format: cell-based, Staphylococcus aureus; conditions: for bactericidal or bacteriostatic: bactericidal when MBC is equal or lower than four-fold MIC; for MBC: lowest concentration causing ≥99.9% cell death of the inoculum, TSA plates, 37°C, 24 h, triplicate
Procedure: as §3

Row | Substance | MIC [1] | MIC [2] | MIC [3] | membrane permeabilization (SYTOX Green) (P. aeruginosa [4]) | MIC [5] | reduction of bacterial viability (P. aeruginosa [6]) | bactericidal or bacteriostatic (S. aureus [7]) | MBC (S. aureus [7]) | bactericidal or bacteriostatic (P. aeruginosa [8]) | MBC (P. aeruginosa [8]) | morphological changes of cell envelope (AFM) (P. aeruginosa cells; all concentrations tested (MBC, above and below)) | MIC [9] | reduction in bacterial viability (S. aureus [10]) | MIC [11] | bactericidal or bacteriostatic (E. coli) | MBC (E. coli) | bactericidal or bacteriostatic (MRSA) | MBC (MRSA) | morphological changes of cell envelope (AFM) (P. aeruginosa cells; 1.56 μM, a concentration below MBC) | morphological changes of cell envelope (AFM) (P. aeruginosa cells; treatment with MBC, or higher)
1 | GRRGPRRANQNGTRRRRRRT-NH2 [vCPP 1779] | 25 µM | >100 µM | 25 µM | – | – | – | – | – | – | – | – | – | – | – | – | – | – | – | – | –
2 | INWKKWWQVFYTVV-NH2 [vAMP 059] | – | – | – | increase in membrane permeabilization with increasing peptide concentrations | 0.78 µM | 99.7% | bactericidal | 1.56 µM | bactericidal | 6.25 µM | pronounced collapse in P. aeruginosa cell envelope | 6.25 µM | 99.9% | – | – | – | – | – | – | –
3 | KKRYKKKYKAYKPYKKKKKF-NH2 [vCPP 0275] | 12.5 µM | 50 µM | 100 µM | – | – | – | – | – | – | – | – | – | – | 25 to 50 µM | – | – | – | – | – | –
4 | RPRRRATTRRRITTGTRRRR-NH2 [vCPP 0667] | 12.5 µM | 100 µM | 25 µM | – | – | – | – | – | – | – | – | – | – | 50 µM | – | – | – | – | – | –
5 | RRLTLRQLLGLGSRRRRRSR-NH2 [vCPP 0769] | 25 µM | 3.13 µM | 3.13 µM | – | – | – | only inhibited bacterial growth | >100 µM | bactericidal | 6.25 µM | – | – | – | 3.13 µM | bactericidal | 50 µM | only inhibited bacterial growth | >100 µM | – | –
6 | SPRRRTPSPRRRRSQSPRRR-NH2 [vCPP 0417] | 25 µM | >100 µM | 100 µM | – | – | – | – | – | – | – | – | – | – | >100 µM | – | – | – | – | – | –
7 | WRRRYRRWRRRRRWRRRPRR-NH2 [vCPP 2319] | 3.13 µM | 1.56 µM | 3.13 µM | increase in membrane permeabilization with increasing peptide concentrations | – | 97% | bactericidal | 3.13 µM | bactericidal | 3.13 µM | – | – | 90.9% | 1.56 µM | bactericidal | 3.13 µM | bactericidal | 3.13 µM | only minor alterations on bacterial topography | marked collapse of the membrane structure
